Measured values: PMC11247487, “Discovery of Dual MER/AXL Kinase Inhibitors as Bifunctional Small Molecules for Inhibiting Tumor Growth and Enhancing Tumor Immune Microenvironment” (Journal of Medicinal Chemistry, 2024)
Several values for one entry are separate records, joined by “and”; a condition that tells them apart may be missing. Equal values may be shown once. Entries after “also recorded” stand apart in the source; their conditions may differ. Read-outs that look alike come from different tables or passages of the source. Each block holds one compound with its values, some of them ahead of it.

Legend:
[1] = In vivo pharmacokinetics study; conditions: mice; for clearance at 24 h: read-out: iv CL; for Vd at 24 h: read-out: iv Vss; for iv DNAUC(0–inf) / po DNAUC(0–inf) / po DNCmax: dose-normalized
Procedure: The animal studies were performed according to NHRI institutional animal care and committee-approved procedures. Male ICR mice (25–35 g) were obtained from BioLASCO (Taiwan Co., Ltd., Ilan, Taiwan). […] All samples were analyzed for the parent drug by LC-MS/MS. Plasma concentration data were analyzed with a noncompartmental method.

MC38 murine colon tumor = test: MC38 syngeneic tumor model; assay type: in vivo, mice
Procedure: (§1) All mice were used between 6 and 7 weeks of age. […] Tumor cells were detected as free of Mycoplasma spp prior to injection into animals. […] Tumor growth was measured with an electronic caliper, and volumes were calculated as L × W × W/2. Tumor size and animal body weight were measured once a week after tumor cell inoculation. Tumor growth inhibition (% TGI) = [1 – ΔT/ΔC] × 100, where ΔT is the difference of average tumor volume on the measured day and day 0 of treated groups and ΔC is the difference of average tumor volume on the measured day and day 0 of control groups.

MER = target: T1, MER (Homo sapiens, UniProt Q12866); test: MER enzyme inhibition assay (in-house Kinase-Glo); assay type: biochemical
T1 construct: A purified kinase (MER or AXL) was incubated with a compound or DMSO
T1 sequence (Q12866 21-999): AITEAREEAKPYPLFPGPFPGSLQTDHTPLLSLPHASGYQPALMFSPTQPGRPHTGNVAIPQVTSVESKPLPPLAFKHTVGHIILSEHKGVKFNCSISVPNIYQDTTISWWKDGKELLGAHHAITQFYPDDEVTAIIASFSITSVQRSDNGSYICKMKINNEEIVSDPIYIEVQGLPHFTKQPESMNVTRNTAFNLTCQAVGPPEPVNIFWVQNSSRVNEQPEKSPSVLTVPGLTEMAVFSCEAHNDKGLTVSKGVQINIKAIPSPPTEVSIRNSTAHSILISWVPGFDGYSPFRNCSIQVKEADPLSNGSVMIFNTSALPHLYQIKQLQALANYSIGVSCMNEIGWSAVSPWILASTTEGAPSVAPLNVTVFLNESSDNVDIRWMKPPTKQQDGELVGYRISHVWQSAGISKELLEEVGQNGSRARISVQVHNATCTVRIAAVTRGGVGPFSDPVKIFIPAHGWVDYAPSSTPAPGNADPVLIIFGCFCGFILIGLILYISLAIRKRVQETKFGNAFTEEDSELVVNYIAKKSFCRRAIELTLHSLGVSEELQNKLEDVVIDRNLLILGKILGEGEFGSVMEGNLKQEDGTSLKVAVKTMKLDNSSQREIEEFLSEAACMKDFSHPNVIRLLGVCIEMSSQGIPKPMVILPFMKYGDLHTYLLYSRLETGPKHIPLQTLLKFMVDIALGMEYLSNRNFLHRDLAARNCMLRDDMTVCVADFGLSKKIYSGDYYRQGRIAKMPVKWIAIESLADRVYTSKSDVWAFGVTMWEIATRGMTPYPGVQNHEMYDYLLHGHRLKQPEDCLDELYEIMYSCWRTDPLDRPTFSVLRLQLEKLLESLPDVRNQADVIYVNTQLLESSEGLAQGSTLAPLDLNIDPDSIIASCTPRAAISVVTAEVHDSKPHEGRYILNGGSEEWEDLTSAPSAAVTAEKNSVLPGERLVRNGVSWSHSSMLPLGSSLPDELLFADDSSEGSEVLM

AXL = target: T2, AXL (Homo sapiens, UniProt P30530); test: AXL enzyme inhibition assay (ADP-Glo); assay type: biochemical
T2 construct: A purified kinase (MER or AXL) was incubated with a compound or DMSO
T2 sequence (P30530 26-894): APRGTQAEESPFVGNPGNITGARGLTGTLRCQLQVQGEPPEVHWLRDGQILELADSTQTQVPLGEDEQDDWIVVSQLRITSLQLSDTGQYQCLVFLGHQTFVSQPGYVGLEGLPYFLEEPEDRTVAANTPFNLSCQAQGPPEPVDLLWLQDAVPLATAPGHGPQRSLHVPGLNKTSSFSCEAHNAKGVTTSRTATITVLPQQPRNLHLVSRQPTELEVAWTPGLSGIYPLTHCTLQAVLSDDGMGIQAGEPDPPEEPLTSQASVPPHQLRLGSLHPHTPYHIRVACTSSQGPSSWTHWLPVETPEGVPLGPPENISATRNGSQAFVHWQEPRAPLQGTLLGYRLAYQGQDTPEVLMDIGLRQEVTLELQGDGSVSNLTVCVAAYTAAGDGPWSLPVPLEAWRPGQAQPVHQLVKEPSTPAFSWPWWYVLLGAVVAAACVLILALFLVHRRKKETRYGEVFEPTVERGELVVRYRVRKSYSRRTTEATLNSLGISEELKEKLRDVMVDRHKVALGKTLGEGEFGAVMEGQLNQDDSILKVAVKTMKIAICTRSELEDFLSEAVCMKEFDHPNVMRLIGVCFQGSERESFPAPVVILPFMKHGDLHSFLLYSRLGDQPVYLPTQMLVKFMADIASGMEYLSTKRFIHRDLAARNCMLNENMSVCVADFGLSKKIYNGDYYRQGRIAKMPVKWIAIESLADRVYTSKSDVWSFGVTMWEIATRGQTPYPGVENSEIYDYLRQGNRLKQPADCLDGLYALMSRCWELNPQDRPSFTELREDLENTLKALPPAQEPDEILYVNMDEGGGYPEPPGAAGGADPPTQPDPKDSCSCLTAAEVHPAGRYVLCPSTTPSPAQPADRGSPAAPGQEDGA

Ba/F3-MER cells = test: Cell viability assay (MTS); assay type: cell-based; conditions: 72 h
[2] = In vitro microsomal stability assay; assay type: in vitro ADME; conditions: 1 μM, mouse liver microsomes, percent remaining at 30 min
Procedure: All incubations were initiated with the addition of NADPH-generating system at 37 °C for 30 min. At 0 and the end of incubation, 100 μL of aliquots were taken from the incubation mixture and placed into centrifuge tubes containing 100 μL of ice-cold acetonitrile to terminate the metabolic reaction. The samples were vortexed and centrifuged, and then, the supernatant injected onto LC/MS. Percent of remaining of each compound was calculated by comparing peak areas at 30 min to that at the initiation of incubation.

[3] = system: 4T1 murine triple-negative breast tumors; test: 4T1 syngeneic tumor model; assay type: in vivo, mice; conditions: 50 mg/kg QD, FOTO
Procedure: as §1

[4] = system: Hepa1–6 murine liver tumors; test: Hepa1–6 tumor model; assay type: in vivo, mice; conditions: 30 mg/kg orally QD, FOTO
Procedure: as §1

[5] = system: MDA-MB-231 human triple-negative breast xenograft tumors; test: MDA-MB-231 xenograft tumor model; conditions: 50 mg/kg QD, FOTO
Procedure: as §1

[6] = male, ICR, mouse, plasma, iv 3 mg/kg
[7] = male, ICR, mouse, plasma, iv 2 mg/kg

clearance at 24 h [1, 6]: 2.9 mL/min/kg
half-life at 24 h ([1]; male, ICR, mouse, plasma, iv 3 mg/kg, read-out: iv T1/2 (converted)): 6 h
Vd at 24 h [1, 6]: 1.2 L/kg
bioavailability at 24 h ([1]; male, ICR, mouse, plasma, iv and po 3 mg/kg): 19.2%
Tmax at 24 h ([1]; male, ICR, mouse, plasma, po 3 mg/kg): 4 h
half-life at 24 h ([1]; male, ICR, mouse, plasma, po 3 mg/kg, read-out: po T1/2 (converted)): 3.4 h
iv DNAUC(0–inf) ([1]; iv 3 mg/kg): 3,985.3 ng × hr/mL
po DNAUC(0–inf) ([1]; po 3 mg/kg): 764.0 ng·h/mL
po DNCmax ([1]; po 3 mg/kg): 38.7 ng/mL
SMILES: Cn1cc(-c2oc3ncnc(Oc4ccc(NC(=O)c5cccn(-c6ccc(F)cc6)c5=O)cc4)c3c2-c2cccc(N)c2)cn1 [Compound 22, N-(4-{[5-(3-Aminophenyl)-6-(1-methyl-1H-pyrazol-4-yl)furo[2,3-d]pyrimidin-4-yl]oxy}phenyl)-1-(4-fluorophenyl)-2-oxo-1,2-dihydropyridine-3-carboxamide]
body weight during treatment (MC38 murine colon tumor; MC38 tumor-bearing mice, 25-50 mg/kg orally, 3 weeks): No significant body weight loss; also recorded: well-tolerated without significant body weight loss

IC50 (MER): 2.1 nM
IC50 (AXL): 12.1 nM
IC50 (Ba/F3-MER cells): 8.4 nM
bioavailability at 24 h ([1]; male, ICR, mouse, plasma, iv 2 mg/kg, po 10 mg/kg): 0.6%
clearance at 24 h [1, 7]: 42.9 mL/min/kg
half-life at 24 h ([1]; male, ICR, mouse, plasma, iv 2 mg/kg, read-out: iv T1/2 (converted)): 6.7 h
Vd at 24 h [1, 7]: 14.2 L/kg
Tmax ([1]; male, ICR, mouse, plasma, po 10 mg/kg): 2.2 h
half-life at 24 h ([1]; male, ICR, mouse, plasma, po 10 mg/kg, read-out: po T1/2 (converted)): 4.7 h
iv DNAUC(0–inf) ([1]; iv 2 mg/kg): 454.5 ng·h/mL
po DNAUC(0–inf) ([1]; po 10 mg/kg): 2.6 ng·h/mL
po DNCmax ([1]; po 10 mg/kg): 0.7 ng/mL
Microsomal stability @ 30 min [2]: 83%
SMILES: Cn1cc(-c2oc3ncnc(Oc4ccc(NC(=O)c5cccn(-c6ccc(F)cc6)c5=O)cc4)c3c2-c2cccc(N3CCNCC3)c2)cn1 [Compound 34, 1-(4-Fluorophenyl)-N-[4-({6-(1-methyl-1H-pyrazol-4-yl)-5-[3-(piperazin-1-yl)phenyl]furo[2,3-d]pyrimidin-4-yl}oxy)phenyl]-2-oxo-1,2-dihydropyridine-3-carboxamide]

IC50 (MER): 9.8 nM
SMILES: COc1cc2nccc(Oc3ccc(NC(=O)c4cc5c(n(-c6ccccc6)c4=O)CCCC5=O)nc3)c2cc1OC [Compound 8, tamnorzatinib]
TGI, % of Vehicle Control (MC38 murine colon tumor; 50 mg/kg orally QD, FOTO): 45% and 44.8 ± 4.6%
TGI, % of Vehicle Control [3]: 12% and 12.2 ± 3.7%
TGI, % of Vehicle Control [4]: 17% and 16.7 ± 12.0%
TGI, % of Vehicle Control [5]: 9% and 8.7 ± 4.7%
